Measured values published in patent US20080119439A1, “Treatment and prevention of intestinal fibrosis” (Bayer Schering Pharma Aktiengesellschaft, priority 2006, published 2008).

Columns and labels:
[1] = test system: chronic model of colon inflammation (established TNBS colitis); assay: Study 2: established TNBS colitis, lipoxin A4 analog dosed orally after the third week of TNBS; format: in vivo, BALB/c mice; conditions: 1 mg/kg orally, starting on week 3 after TNBS administration
Method: (§1) A model of chronic inflammation induced by 7 week administration of 2,4,6-trinitrobenzenesulfonic acid (TNBS) in escalating manner was used in these studies. This model results in inflammation-driven fibrosis that associates with significant increase in intestinal content of collagen.
(§2) The induction of chronic colitis was performed according the protocol proposed by Lawrance et al, Gastroenterology (2003) 125:1750-1761. Six- to eight-week-old female mice of the BALB/c strain were obtained from Charles River (Breeding Laboratories, Monza, Italy).
To test the influence of lipoxin analogs in the inflammatory and fibrotic response in animals with established colitis, in a second in vivo study lipoxin A4 analog (1 mg/kg) was dosed orally starting after the third week of administration of TNBS (same protocol as described above). Mice were examined weekly for weight loss, diarrhea and rectal bleeding. Two days after the last administration of TNBS, mice were killed and colons were removed and examined. The macroscopic appearance was analyzed considering the presence of indurations, edema, thickness and evidence of mucosal hemorrhage.
Neutrophil infiltration in the colon was monitored by measuring MPO activity using a spectrophotometric assay with trimethylbenzidine (TMB) as a substrate according to a previously published method. Activity is expressed as U per mg protein. […]

[2] = test system: chronic model of colon inflammation (TNBS-induced chronic colitis); assay: Study 1: chronic TNBS colitis, lipoxin A4 analog given daily together with TNBS; format: in vivo, BALB/c mice
Method: as §1, §2
In a first in vivo experiment, BALB/c mice of the control group (n=7) received weekly 0.1 mL of saline solution by intracolonic injections. Mice of the TNBS group (n=15) were treated for 8 weeks with escalating doses (0.5 to 1.25 mg, with a 0.25 mg increase every two weeks) of TNBS in 30% ethanol by intracolonic injections at weekly intervals. Mice of TNBS+lipoxin A4 analog group (n=15) received the same weekly TNBS administration as the TNBS-only group plus 1 mg/kg of the lipoxin A4 analog daily by intragastric administration. Mice were examined weekly for weight loss, diarrhea and rectal bleeding. Two days after the last administration of TNBS, mice were killed and colons were removed and examined. The macroscopic appearance was analyzed considering the presence of indurations, edema, thickness and evidence of mucosal hemorrhage.
Neutrophil infiltration in the colon was monitored by measuring MPO activity using a spectrophotometric assay with trimethylbenzidine (TMB) as a substrate according to a previously published method. Activity is expressed as U per mg protein.
For histologic examination, sections of the proximal, middle and distal colon from each animal were fixed in 10% formalin, embedded in paraffin, sectioned, and stained with haematoxylin and eosin (H&E) or Sirius Red. For the latter, sections were incubated for 30 minutes in 0.1% Sirius Red F3B containing saturated picric acid and 0.1% fast green. After rising twice with distilled water, sections were briefly dehydrated with 70% ethanol.
Images from colon sections were acquired with a BX60 microscope (Olympus Co., Rome, Italy), digitalized using a SPOT-2 camera (Diagnostic Instruments Inc., Sterling Heights, Mich.) with a resolution of 1315×1033 pixels and analyzed using a computerized image analysis system (Image Acquisition System Ver.005, Delta Sistemi, Rome, Italy).
Sections from the colon of each animal were examined in a blinded fashion. The degree of the inflammation and fibrosis was scored accordingly with an established method (Lawrance et al., supra; Neurath et al., J. Exp. Med. (1995) 182:1281-1290). Briefly, inflammation was scored as absent, mild, moderate or severe depending on the density and extent of inflammatory infiltrates, loss of goblet cells, and bowel wall thickening. Also, the fibrosis was scored as absent, mild, moderate or severe on the basis of the density and extent of the Sirius red-positive connective tissue staining, compared with the water-control mice.
Quantification of the expression of mouse gene in colon tissues and intestinal fibroblasts was performed by quantitative real-time polymerase chain reaction (RT-PCR) (Heid C A 1996), using sense and antisense primers indicated in Table 1. All PCR primers were designed using PRIMER3-OUTPUT software using published sequence data from the NCBI database. Total RNA was isolated (TRIzol reagent, Invitrogen srl, Milan, Italy) from specimens taken from distal colons and intestinal fibroblasts. One microgram of purified RNA was treated with Dnasel for 15 minutes at room temperature, followed by incubation at 95° C. for 5 minutes in the presence of 2.5 mmol/L EDTA. The RNA was reverse-transcribed with Superscript III (Invitrogen srl, Milan, Italy) in 20 μL reaction volume using random primers. […]

[3] = 1 mg/kg daily intragastric, seven weeks, quantitative RT-PCR

In the case of `O=C([O-])COC[C@H](O)[C@H](O)/C=C/C=C/C#C/C=C/[C@H](O)COc1ccc(F)cc1.[Na+]` [lipoxin A4 analog, sodium 2-((2S,3R,4E,6E,10E,12S)-13-(4-fluorophenoxy)-2,3,12-trihydroxytrideca-4,6,10-trien-8-ynyloxy)acetate], the “efficacy when administered in a therapeutic manner (inflammatory and fibrotic response)” value [1] is reported as “effective”, the “colon fibrosis development, morphometric analysis of Sirius red-stained colon” value ([2]; 1 mg/kg daily intragastric, administered for seven weeks, vs TNBS alone) is reported as “significantly attenuated” and the “colon expression of TGFβ mRNA (marker of colon fibrosis)” value [2, 3] is reported as “significantly attenuated”. For the same compound, the “colon expression of fibronectin mRNA (marker of colon fibrosis)” value [2, 3] was “significantly attenuated”, the “colon expression of α-SMA mRNA (marker of colon fibrosis)” value [2, 3] was “significantly attenuated” and the “colon expression of αI collagen mRNA (marker of colon fibrosis)” value [2, 3] was “significantly attenuated”. For the same compound, the colon inflammation ([2]; administered orally) was “attenuated” and the “TGBβ protein in colon” value ([2]; in comparison to mice administered TNBS alone) was “reduced”.
